Experiments:
Assay in all cases: relative viability (nuclei count vs DMSO), 5 days (fraction); higher = more cells survive
[1] = compound: Cc1ccc(-n2nc(C(C)(C)C)cc2NC(=O)Nc2ccc(OCCN3CCOCC3)c3ccccc23)cc1 [Doramapimod] + CCNC(=O)c1noc(-c2cc(C(C)C)c(O)cc2O)c1-c1ccc(CN2CCOCC2)cc1 [Luminespib] (partner 0.01 µM)
Summary of the method: (§1)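 Lung cancer cell lines were seeded in 1536-well plates and dosed by pin tool the next day, with either a single drug or a fixed anchor-drug dose combined with five library-drug doses (not always all listed) spaced in √10 steps. Five days later, one step fixed the cells and stained their nuclei (final 0.05% Triton X-100, 1% formaldehyde, 1 ug/ml Hoechst), and nuclei were counted on 4× images. Relative viability is the nuclei count in treated wells divided by the count in vehicle wells, and each value is the median of duplicate plates.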

[2] = compound: Cn1c(Nc2ccc(C(F)(F)F)cc2)nc2cc(Oc3ccnc(-c4ncc(C(F)(F)F)[nH]4)c3)ccc21 [RAF265] + CCNC(=O)c1noc(-c2cc(C(C)C)c(O)cc2O)c1-c1ccc(CN2CCOCC2)cc1 [Luminespib] (partner 0.01 µM)
Summary of the method: as §1

[3] = compound: Cn1c(Nc2ccc(C(F)(F)F)cc2)nc2cc(Oc3ccnc(-c4ncc(C(F)(F)F)[nH]4)c3)ccc21 [RAF265] + C[C@@H](Oc1cc(-c2cnn(C3CCNCC3)c2)cnc1N)c1c(Cl)ccc(F)c1Cl [Crizotinib] (partner 1 µM)
Summary of the method: as §1

[4] = compound: Cn1c(Nc2ccc(C(F)(F)F)cc2)nc2cc(Oc3ccnc(-c4ncc(C(F)(F)F)[nH]4)c3)ccc21 [RAF265] + N=C(N)NC(=N)NCCc1ccccc1 [Phenformin] (partner 250 µM)
Summary of the method: as §1

| Cell Line | relative viability ([1]; first compound 0.02 µM) | relative viability ([1]; first compound 0.06325 µM) | relative viability ([1]; first compound 0.2 µM) | relative viability ([1]; first compound 0.6325 µM) | relative viability ([1]; first compound 2 µM) | relative viability ([2]; first compound 0.01 µM) | relative viability ([2]; first compound 0.03162 µM) | relative viability ([2]; first compound 0.1 µM) | relative viability ([2]; first compound 0.3162 µM) | relative viability ([2]; first compound 1 µM) | relative viability ([3]; first compound 0.01 µM) | relative viability ([3]; first compound 0.03162 µM) | relative viability ([3]; first compound 0.1 µM) | relative viability ([3]; first compound 0.3162 µM) | relative viability ([3]; first compound 1 µM) | relative viability ([4]; first compound 0.01 µM) | relative viability ([4]; first compound 0.03162 µM) | relative viability ([4]; first compound 0.1 µM) | relative viability ([4]; first compound 0.3162 µM) | relative viability ([4]; first compound 1 µM) |
| --- | --- | --- | --- | --- | --- | --- | --- | --- | --- | --- | --- | --- | --- | --- | --- | --- | --- | --- | --- | --- |
| NCI-H727 | 0.363 | 0.312 | 0.342 | 0.306 | 0.225 | 0.332 | 0.345 | 0.6 | 0.383 | 0.263 | 0.8 | 0.727 | 0.967 | 0.598 | 0.283 | 0.531 | 0.502 | 0.452 | 0.341 | 0.398 |
| HARA | 0.779 | 0.688 | 0.873 | – | 0.576 | 0.64 | 0.627 | 0.476 | 0.509 | 0.165 | 1.1 | 0.965 | 1.03 | 0.906 | 0.652 | 0.498 | 0.345 | 0.445 | 0.39 | 0.329 |
| NCI-H2228 | 0.151 | 0.151 | 0.107 | 0.14 | 0.131 | 0.191 | 0.118 | 0.186 | 0.126 | 0.0971 | 0.382 | 0.369 | 0.333 | 0.356 | 0.321 | 0.287 | 0.387 | 0.357 | 0.203 | 0.186 |
| LCLC-97TM1 | 0.789 | 0.689 | 0.795 | 0.705 | 0.537 | 0.819 | 0.67 | 0.632 | 0.309 | 0.306 | 0.355 | 0.274 | 0.293 | 0.181 | 0.121 | 0.42 | 0.384 | 0.21 | 0.252 | 0.148 |
| LC-2-ad | 1.02 | 1.03 | 1.09 | 1.15 | 0.984 | 1.31 | 1.05 | 1.14 | 0.692 | 0.672 | 0.451 | 0.442 | 0.492 | 0.474 | 0.305 | 0.628 | 0.581 | 0.586 | 0.394 | 0.455 |
| SK-LU-1 | 0.208 | 0.204 | 0.172 | 0.218 | 0.186 | 0.203 | 0.182 | 0.177 | 0.185 | 0.176 | 0.45 | 0.753 | 0.73 | 0.477 | 0.397 | 0.543 | 0.377 | 0.385 | 0.26 | 0.234 |
| EKVX | 0.92 | 0.868 | 0.906 | 0.914 | 0.77 | 0.837 | 0.918 | 0.984 | 0.598 | 0.791 | 0.909 | 0.625 | 0.998 | 0.805 | 0.773 | 0.266 | 0.249 | 0.248 | 0.186 | 0.19 |

— the supplement of paper PMC10307832
